In US6620428B1, “Transdermally administered acetylcysteine as mucolytic agent” (Pharmacia AB, priority 1996, dated 2003):
Like-named read-outs stand apart in the source and are kept apart here.

Columns and labels:
[1] = format: in vitro ADME; settings: pig
Excerpt: Quantitative determination of N-Acetyl-L-cysteine in the receptor solution samples from the skin permeation studies in Example 2 and from the membrane permeation studies in Example 3, and quantitative determination of N-Acetyl-L-cysteine in the samples from the stability studies in Example 6, was done by the HPLC method described under Apparatus.
In vitro permeation of N-Acetyl-L-cysteine from the solutions 1, 2, 3 and 4 through dermatomed pig skin was investigated in Franz diffusion Cells.
Skin pieces with a thickness of approximately 765 μm were dermatomed from full thickness pig skin and mounted in glass diffusion cells with an available diffusion area of 1.8 cm^2. Pig skin is a fully accepted model for human skin. The solutions 1, 2, 3 and 4 were applied separately on the skin surfaces and the dermal sides were all exposed to 12.1 ml receptor solution consisting of 0.0001M hydrochloric acid equilibrated to 37±1° C.
Permeation of N-Acetyl-L-cysteine was followed by removing samples periodically and measuring the concentration by the HPLC method according to Example 1. An increase in the permeated amount of N-Acetyl-L-cysteine is seen in the following order: Propylene glycol, water, ethanol and propylene glycol containing 5% azone added used as solvents. […]

[2] = oral administration, cited from earlier work

CC(=O)N[C@@H](CS)C(=O)O [N-Acetyl-L-cysteine]
estimated fluxes of N-Acetyl-L-cysteine through skin [1]: 4-48 μg/cm^2/h
amount permeated through skin after 20 hours ([1]; 20 h): about 3000 μg/cm^2
bioavailability when administered perorally [2]: 4%
bioavailability when administered perorally ([2]; listed as N-Acetyl-cysteine): 4-10%
